Three compounds from ChEMBL document CHEMBL3784981, “Anti-inflammatory, analgesic and antioxidant activities of novel kyotorphin-nitroxide hybrid molecules” (Bioorg Med Chem Lett, 2016) can be followed below.

Assay type in all cases: functional
The subject of test [1] is Mus musculus. In words: Analgesic activity in ICR mouse assessed as pain threshold at 1 umol/kg administered through oral gavage after 30 mins by tail flick method.
The subject of test [2] is Mus musculus. In words: Analgesic activity in ICR mouse assessed as pain threshold at 1 umol/kg administered through oral gavage after 90 mins by tail flick method. In general terms: In hot-plate and tail-flick tests a longer latency is read as antinociception.
Test [3] concerns Mus musculus. Put plainly: Analgesic activity in ICR mouse assessed as pain threshold at 1 umol/kg administered through oral gavage after 150 mins by tail flick method.
In test [4] the test system is Mus musculus. Put plainly: Antiinflammatory activity in ICR mouse assessed as inhibition of xylene-induced ear edema at 0.1 umol/kg, po administered 30 mins prior to xylene challenge measured after 2hrs. The following applies: Mus musculus, ICR, Ear, po.
Test [5] relates to Mus musculus. In words: Analgesic activity in ICR mouse assessed as pain threshold at 1 umol/kg administered through oral gavage after 60 mins by tail flick method.
Test [6] concerns Mus musculus. Put plainly: Analgesic activity in ICR mouse assessed as pain threshold at 1 umol/kg administered through oral gavage after 180 mins by tail flick method.
In test [7] the test system is Mus musculus. Put plainly: Analgesic activity in ICR mouse assessed as pain threshold at 1 umol/kg administered through oral gavage after 120 mins by tail flick method.
Test [8] deals with Mus musculus. Put plainly: Analgesic activity in ICR mouse assessed as pain threshold at 165 umol/kg administered through oral gavage after 120 mins by tail flick method.
Test [9] relates to Mus musculus. Put plainly: Analgesic activity in ICR mouse assessed as pain threshold at 165 umol/kg administered through oral gavage after 150 mins by tail flick method.
Test [10] concerns Mus musculus. In words: Analgesic activity in ICR mouse assessed as pain threshold at 165 umol/kg administered through oral gavage after 30 mins by tail flick method.
In test [11] the test system is Mus musculus. Put plainly: Analgesic activity in ICR mouse assessed as pain threshold at 165 umol/kg administered through oral gavage after 60 mins by tail flick method.
Test [12] relates to Mus musculus. Put plainly: Analgesic activity in ICR mouse assessed as pain threshold at 165 umol/kg administered through oral gavage after 180 mins by tail flick method.
The test system of test [13] is Mus musculus. Put plainly: Analgesic activity in ICR mouse assessed as pain threshold at 165 umol/kg administered through oral gavage after 90 mins by tail flick method.

For orientation: inhibition in vivo means the drop in the measured response relative to a control, in per cent. Regarding `NC(N)=NCCC[C@H](NC(=O)[C@@H](N)Cc1ccc(O)cc1)C(=O)O` [KYOTORPHIN], the Activity is 16.08% in the test on Mus musculus [1]; 25.35% in the test on Mus musculus [2]; 12.11% in the test with Mus musculus [3]; 22.78% with Mus musculus [5]; 10.55% in the test with Mus musculus [6]; 12.32% in the test on Mus musculus [7]. In addition, the inhibition in vivo at 0.1 µmol/kg with Mus musculus [4] was determined as 25.9%.

On to `CC1(C)N([O])C(c2ccc(OCC(=O)O)cc2)=[N+]([O-])C1(C)C`, for which the Activity in the test on Mus musculus [1] came to 9.1%; in the test on Mus musculus [2], 20.97%; in the test on Mus musculus [3] it was 21.11%; in the test with Mus musculus [5] it was 12.31%; with Mus musculus [6], 13.05%; in the test with Mus musculus [7] it was 23.18%. In addition, in the test with Mus musculus [4], the inhibition in vivo at 0.1 µmol/kg turned out to be 29.7%.

For `CC(=O)Oc1ccccc1C(=O)O` [ASPIRIN], the Activity in the test on Mus musculus [8] amounted to 25.21%; in the test with Mus musculus [9], 15.84%; in the test with Mus musculus [10], 33.21%; with Mus musculus [11], 66.32%; with Mus musculus [12] it was 20.56%; in the test with Mus musculus [13], 53.2%. For the same compound, in the test with Mus musculus [4], the inhibition in vivo at 0.1 µmol/kg came out at 49.9%.
